Among the data in patent US6407248B1, “α-unsaturated amines, their production and use” (Takeda Chemical Industries, Ltd., priority 1987, dated 2002) are mortality values, retold here.

The first assay concerns Brown Planthoppers (Nilaparvata lugens). Description: Effect against brown planthoppers (foliar spray on rice seedlings). Type of assay: in vivo. As to conditions: Nilaparvata lugens, foliar, 168 h, read-out: % Mortality after 7 days. On the procedure: Effect Against Brown Planthoppers (Nilaparvata lugens)
An emulsifiable concentrate of the compound of the invention, prepared in the same manner as Example 112 below, was diluted with water to a concentration of 500 ppm and sprayed over the stems and leaves of rice seedlings in the 2-leaf stage at the rate of 10 ml per paper pot. Water was put in test tubes and the treated rice seedlings were placed therein. Then, 10 brown planthopper larvae were released in each tube, which was then capped with an aluminum cap. The test tubes were maintained in an incubator at 25° C. and the dead insects were counted 7 days after release. The % mortality was calculated using the following formula. [formula]
Broadly, the mortality is the percentage killed. With `CCCN(Cc1ccc(Cl)nc1)C(N)=C[N+](=O)[O-]` [Compound 75, 1-Amino-1-[N-(6-chloro-3-pyridylmethyl)-N-n-propyl]-amino-2-nitroethylene], the mortality at 500 µg/mL was 100%.

Take `CCCN(Cc1ccc(Cl)nc1)C(=C[N+](=O)[O-])NC` [Compound 76, 1-[N-(6-Chloro-3-pyridylmethyl)-N-n-propyl]amino-1-methylamino-2-nitroethylene]: the mortality at 500 µg/mL amounted to 100%.

As to `CCNC(=C[N+](=O)[O-])N(C)Cc1ccc(Cl)nc1` [Compound 80, 1-[N-(6-Chloro-3-pyridylmethyl)-N-methyl]amino-1-ethylamino-2-nitroethylene], the mortality at 500 µg/mL came out at 100%.

On to `O=[N+]([O-])C=C(NCc1ccc(Cl)nc1)NCc1ccc(Cl)nc1` [Compound 89, 1,1-bis(6-Chloro-3-pyridylmethyl)amino-2-nitro-ethylene], for which the mortality at 500 µg/mL stood at 100%.

As for `CNC(=C[N+](=O)[O-])N(C)Cc1ccc(C)nc1` [Compound 97, 1-Methylamino-1-[N-methyl-N-(6-methyl-3-pyridyl-methyl)]amino-2-nitroethylene], the mortality at 500 µg/mL was 100%.

`CNC(=C[N+](=O)[O-])N(C)Cc1ccc(F)nc1` [Compound 98]: the mortality at 500 µg/mL was determined as 100%.

In the case of `CCN(Cc1ccc(F)nc1)C(=C[N+](=O)[O-])NC` [Compound 99, 1-[N-Ethyl-N-(6-fluoro-3-pyridylmethyl)]amino-1-methylamino-2-nitroethylene], the mortality at 500 µg/mL is 100%.

Turning to `CNC(=C[N+](=O)[O-])N(C)Cc1ccc(Br)nc1` [Compound 100, 1-[N-(6-Bromo-3-pyridylmethyl)-N-methyl]amino-1-methylamino-2-nitroethylene], the mortality at 500 µg/mL was found to be 100%.

For `CCN(Cc1ccc(Br)nc1)C(=C[N+](=O)[O-])NC` [Compound 101, 1-[N-(6-Bromo-3-pyridylmethyl)-N-ethyl]amino-1-methylamino-2-nitroethylene], the mortality at 500 µg/mL came out at 100%.

As to `CNC(=C[N+](=O)[O-])N(C)Cc1cnc(Cl)s1` [Compound 102, 1-[N-(2-Chloro-5-thiazolylmethyl)-N-methyl]amino-1-methylamino-2-nitroethylene], the mortality at 500 µg/mL turned out to be 100%.

As to `CCN(Cc1cnc(Cl)s1)C(=C[N+](=O)[O-])NC` [Compound 103, 1-[N-(2-Chloro-5-thiazolylmethyl)-N-ethyl]amino-1-methylamino-2-nitroethylene], the mortality at 500 µg/mL amounted to 100%.

As to `CN(C)C(=C[N+](=O)[O-])NCc1cnc(Cl)s1` [Compound 104, 1-(2-Chloro-5-thiazolylmethyl)amino-1-dimethyl-amino-2-nitroethylene], the mortality at 500 µg/mL stood at 100%.

As for `O=[N+]([O-])C=C(NCc1cnc(Cl)s1)NCc1cnc(Cl)s1` [Compound 105, 1,1-bis(2-chloro-5-thiazolylmethyl)amino-2-nitroethylene], the mortality at 500 µg/mL is 100%.

As for `CNC(=C[N+](=O)[O-])NCc1cnc(Cl)s1` [Compound 106, 1-(2-Chloro-5-thiazolylmethyl)amino-1-methylamino-2-nitroethylene], the mortality at 500 µg/mL amounted to 100%.

Turning to `CN(C=O)C(=C[N+](=O)[O-])N(C)Cc1ccc(Cl)nc1` [Compound 110, 1-[N-(6-Chloro-3-pyridylmethyl)-N-methyl]amino-1-(N-formyl-N-methyl)amino-2-nitroethylene], the mortality at 500 µg/mL was 100%.

As for `CCN(Cc1ccc(Cl)nc1)C(=C[N+](=O)[O-])N(C)C=O` [Compound 111, 1-[N-(6-Chloro-3-pyridylmethyl)-N-ethyl]amino-1-(N-formyl-N-methyl)amino-2-nitroethylene], the mortality at 500 µg/mL came out at 100%.

As to `CN(C)C(=C[N+](=O)[O-])N(C=O)Cc1ccc(Cl)nc1` [Compound 113, 1-[N-(6-Chloro-3-pyridylmethyl)-N-formyl]amino-1-dimethylamino-2-nitroethylene], the mortality at 500 µg/mL was determined as 100%.

Take `CCOC(=O)C(=C(NC)NCc1ccc(Cl)nc1)[N+](=O)[O-]` [Compound 116, 1-(6-Chloro-3-pyridylmethyl)amino-1-methylamino-2-ethoxycarbonyl-2-nitroethylene]: the mortality at 500 µg/mL amounted to 100%.

As to `CNC(NCc1ccc(Cl)nc1)=C(C(=S)NS(C)(=O)=O)[N+](=O)[O-]` [Compound 117], the mortality at 500 µg/mL stood at 100%.

Take `CNC(=C[N+](=O)[O-])NCc1ccc(Br)nc1` [Compound 118, 1-N-(6-Bromo-3-pyridylmethyl)amino-1-methylamino-2-nitroetylene]: the mortality at 500 µg/mL came to 100%.

In the case of `CN(C=O)C(=C[N+](=O)[O-])N(C)Cc1cnc(Cl)s1` [Compound 121, 1-[N-(2-Chloro-5-thiazolylmethyl)-N-methyl)amino-1-(N-formyl-N-methyl)amino-2-nitroethylene], the mortality at 500 µg/mL came out at 100%.

Still in this assay, the particulars now being: Nilaparvata lugens, foliar, 168 h; emulsifiable concentrate diluted with water to 500 ppm, sprayed on rice seedlings (2-leaf stage), 10 ml per paper pot; 10 larvae per tube; 25° C.; dead insects counted 7 days after release; read-out: % Mortality after 7 days.
As to `CNC(=C[N+](=O)[O-])N(C)Cc1ccc(Cl)cc1` [Compound 68, 1-[N-(4-Chlorobenzyl)-N-methyl]amino-1-methylamino-2-nitroethylene], the mortality at 500 µg/mL is 100%.

Consider `CNC(=C[N+](=O)[O-])NCc1ccc(Cl)cc1` [Compound 70, 1-(4-Chlorobenzyl)amino-1-methylamino-2-nitroethylene], for which the mortality at 500 µg/mL came out at 100%.

`CN(C)C(=C[N+](=O)[O-])NCc1ccc(Cl)cc1` [Compound 71, 1-(4-Chlorobenzyl)amino-1-dimethylamirxo-2-nitroethylene]: the mortality at 500 µg/mL came to 100%.

For `CN(C)C(=C[N+](=O)[O-])N(C=O)Cc1cccnc1` [Compound 72, 1-Dimethylamino-1-[N-formyl-N-(3-pyridylmethyl)]-amino-2-nitroethylene], the mortality at 500 µg/mL came out at 100%.

Turning to `CNC(=C[N+](=O)[O-])N(C)Cc1cnccn1` [Compound 73, 1-Methylamino-1-[N-methyl-N-(2-pyrazinyl)methyl]amino-2-nitroethylene], the mortality at 500 µg/mL worked out at 100%.

Take `CNC(=C[N+](=O)[O-])N(C)c1ccc(Cl)nc1` [Compound 78, 1-[N-(6-Chloro-3-pyridyl)-N-methyl]amino-1-methyl-amino-2-nitroethylene]: the mortality at 500 µg/mL was 100%.

As for `CNC(=C[N+](=O)[O-])N(C)c1cccnc1` [Compound 79, 1-Methylamino-1-[N-methyl-N-(3-pyridyl)]amino-2-nitroethylene], the mortality at 500 µg/mL was determined as 100%.

Take `CNC(=C[N+](=O)[O-])N(C)c1ccc(C)nc1` [Compound 84, 1-Methylamino-1-[N-methyl-N-(6-methyl-3-pyridyl)]-amino-2-nitroethylene]: the mortality at 500 µg/mL was 100%.

`CCNC(=C[N+](=O)[O-])N(C)c1ccc(Cl)nc1` [Compound 85, 1-[N-(6-chloro-3-pyridyl)-N-methyl]amino-1-ethyl-amino-2-nitroethylene]: the mortality at 500 µg/mL was determined as 100%.

Turning to `CNC(=C[N+](=O)[O-])N(C)Cc1cncc(Br)c1` [Compound 86, 1-[N-(5-Bromo-3-pyridylmethyl)-N-methyl]amino-1-methylamino-2-nitroethylene], the mortality at 500 µg/mL was 100%.

For `CNC(=C[N+](=O)[O-])N(C)Cc1cscn1` [Compound 88, 1-Methylamino-1-[N-methyl-N-(4-thiazolyl)methyl]-amino-2-nitroethylene], the mortality at 500 µg/mL came out at 100%.

For the compound `CCN(C(=C[N+](=O)[O-])NC)c1ccc(Cl)nc1` [Compound 90, 1-[N-(6-Chloro-3-pyridyl)-N-ethyl]amino-1-methyl-amino-2-nitroethylene], the mortality at 500 µg/mL was determined as 100%.

For the compound `CCCN(C(=C[N+](=O)[O-])NC)c1ccc(Cl)nc1` [Compound 91, 1-[N-(6-Chloro-3-pyridyl)-N-n-propyl]amino-1-methyl-amino-2-nitroethylene], the mortality at 500 µg/mL turned out to be 100%.

`CCCCN(C(=C[N+](=O)[O-])NC)c1ccc(Cl)nc1` [Compound 92, 1-[N-n-Butyl-N-(6-chloro-3-pyridyl)]amino-1-methyl-amino-2-nitroethylene]: the mortality at 500 µg/mL was 100%.

As to `CCNC(=C[N+](=O)[O-])N(CC)c1ccc(Cl)nc1` [Compound 93, 1-[N-(6-Chloro-3-pyridyl)-N-ethyl]amino-1-ethyl-amino-2-nitroethylene], the mortality at 500 µg/mL is 100%.

On to `CCCNC(=C[N+](=O)[O-])N(C)c1ccc(Cl)nc1` [Compound 95, 1-[N-(6-Chloro-3-pyridyl)-N-methyl]amino-1-n-propyl-amino-2-nitroethylene], for which the mortality at 500 µg/mL worked out at 100%.

Turning to `CNC(=C[N+](=O)[O-])Nc1ccc(Cl)nc1` [Compound 96, 1-(6-Chloro-3-pyridyl)amino-1-methylamino-2-nitro-ethylene], the mortality at 500 µg/mL turned out to be 100%.

As to `CN(C)C(=C[N+](=O)[O-])Nc1ccc(Cl)nc1` [Compound 107, 1-(6-Chloro-3-pyridyl)amino-1-dimethylamino-2-nitrothylene], the mortality at 500 µg/mL came to 100%.

For `CNC(=C[N+](=O)[O-])N(C)c1ccc(OC)nc1` [Compound 108, 1-[N-(6-Methoxy-3-pyridyl)-N-methyl]amino-1-1-methyl-amino-2-nitroethylene], the mortality at 500 µg/mL was 100%.

`CCOC(=O)C(=C(NC)N(C)c1ccc(Cl)nc1)[N+](=O)[O-]` [Compound 109, 1-[N-(6-Chloro-3-pyridyl)-N-methyl]amino-1-methylamino-2-ethoxycarbonyl-2-nitroethylene]: the mortality at 500 µg/mL came to 100%.

For `CN(C=O)C(=C[N+](=O)[O-])N(C)c1ccc(Cl)nc1` [Compound 112, 1[N-(6-Chloro-3-pyridyl)-N-methyl]amino-1-(N-formyl-N-methyl)amino-2-nitroethylene], the mortality at 500 µg/mL was 100%.
